{"source": "ChEMBL document CHEMBL4325859", "about": "“Research advances on anticancer activities of matrine and its derivatives: An updated overview” (Eur J Med Chem, 2019)", "key": {"U-266": {"tested_on": "U-266", "experiment": "Induction of apoptosis in human U266 cells at 2 g/L after 48 hrs by Annexin V-FITC/propidium iodide staining based flow cytometry (Rvb < 3%)", "assay_type": "functional"}, "LoVo": {"tested_on": "LoVo", "experiment": "Antiproliferative activity against human LoVo cells after 24 hrs by MTT assay", "assay_type": "functional, cell-based"}, "RD": {"tested_on": "RD", "experiment": "Induction of apoptosis in human RD cells at 1 mg/ml after 24 hrs by Annexin V-FITC/propidium iodide staining based flow cytometry relative to control", "assay_type": "functional"}, "MG-63": {"tested_on": "MG-63", "experiment": "Growth inhibition of human MG63 cells at 3.2 mg/ml after 48 hrs by MTT assay relative to control", "assay_type": "functional", "conditions": "MG-63, 48 h, read-out: GI"}, "D341 cell line": {"tested_on": "D341 cell line", "experiment": "Growth inhibition of human D341 cells at 2 mg/ml after 72 hrs by CCK8 assay relative to control", "assay_type": "functional", "conditions": "D341, 72 h, read-out: GI"}, "HT-29": {"tested_on": "HT-29", "experiment": "Antiproliferative activity against human HT-29 cells by MTT assay", "assay_type": "functional, cell-based"}, "KYSE-150 cell line": {"tested_on": "KYSE-150 cell line", "experiment": "Antiproliferative activity against human KYSE-150 cells assessed as cell viability at 3 mg/ml after 24 hrs by MTT assay relative to control", "assay_type": "functional", "conditions": "KYSE-150, 24 h, read-out: Activity"}, "HepG2": {"tested_on": "HepG2", "experiment": "Induction of apoptosis in human HepG2 cells at 0.5 mg/ml by Annexin V-FITC/propidium iodide staining based flow cytometry (reference value: 0.14%)", "assay_type": "functional"}}}
{"compound": "O=C1CCC[C@@H]2[C@H]3CCCN4CCC[C@@H](CN12)[C@@H]34", "note": "[MATRINE]", "values": [{"measurement": "Activity", "setting": "U-266", "result": 71.05, "unit": "%"}, {"measurement": "IC50", "setting": "LoVo", "result": 4630, "unit": "µM"}, {"measurement": "Activity", "setting": "RD", "result": 26.5, "unit": "%"}, {"measurement": "inhibition of growth at 3200 µg/mL", "setting": "MG-63", "result": 86, "unit": "%"}, {"measurement": "inhibition of growth at 2000 µg/mL", "setting": "D341 cell line", "result": 59.3, "unit": "%"}, {"measurement": "IC50", "setting": "HT-29", "result": 28.6, "unit": "µM"}, {"measurement": "viability at 3000 µg/mL", "setting": "KYSE-150 cell line", "result": 29.6, "unit": "%"}, {"measurement": "Activity", "setting": "HepG2", "result": 28.91, "unit": "%"}]}
